Experimental data reported in patent publication US10314307B2, “(S)-abscisic acid derivatives for improving plant stress tolerance” (Valent BioSciences Corporation, priority 2015, dated 2019).

Experiments:
Format in all cases: in vivo
[1] = test system: corn plants, 111 day, central corn belt variety; test: Corn plant chilling (growth rate); conditions: for Growth Rate, Greenhouse 7-9 d post spray / Growth Rate, Greenhouse 0-2 d post spray / Growth Rate, Growth Chamber 10° C. 2-7 d post spray: Table 3 study; for Growth Rate, Greenhouse 7-9 d post spray: after chilling; for Growth Rate, Growth Chamber 10° C. 2-7 d post spray: during chilling at 10° C.
Description: Corn seeds of a 111 day, central corn belt variety were planted in 2-quart pots filled with medium. After the corn grew for 10 days in the greenhouse at 24±3° C. (V2 to V3 growth stage), the plants received a foliar spray application of aqueous solutions of the test compounds containing 0.25% non-ionic surfactant with a volume equivalent to 30 gallons/acre. After spraying, plants were moved back to the greenhouse for 2 days, then moved to a growth chamber kept at 10° C. with a 16:8 light:dark cycle (cold treatment). After 5 days in the cold, plants were returned to the greenhouse for 2 days before being harvested destructively. Results of the studies comparing the growth rate of plants treated with S-ABA with 3′-methyl-(S)-ABA during the experiment are shown in Table 3. In additional studies, the effect of S-ABA and 3′-propargyl-(S)-ABA on corn growth rate in chilling studies was compared.

[2] = test system: corn plants, commercial 111 day, central corn belt variety; test: Corn stomatal conductance; conditions: for Average Stomatal Conductance (% of Control), 6 DAS: 6 days after spraying; for Average Stomatal Conductance (% of Control), 16 DAS: 16 days after spraying
Description: (§1) In this greenhouse experiment, foliar spray treatments containing 3′-methyl-(S)-abscisic acid, 3′-propargyl-(S)-abscisic acid or (S)-abscisic acid were applied to corn plants to evaluate their effect on gas exchange, as measured through stomatal conductance. Corn plants of a commercial, 111 day, central corn belt variety were grown in the greenhouse under optimal conditions for five weeks and were size-matched into ten groups of five plants. Using an aerosol sprayer, each group was sprayed to drip (25 milliliters per plant) with solutions containing a non-ionic surfactant (0.125%, v/v) and water (control), 2.5 mg, 7.5 mg or 25 mg/plant 3′-methyl-(S)-abscisic acid, or 2.5 mg, 7.5 mg or 25 mg/plant 3′-propargyl-(S)-abscisic acid, or 7.5 mg, 25 mg or 75 mg/plant (5)-ABA, respectively. After spraying, plants were returned to the greenhouse for the duration of the experiment. Stomatal conductance was measured using an AP4 porometer (Delta T Devices, Cambridge, UK) and the conductance for each plant was recorded at approximately the same time of day (˜10 AM) prior to treatment application as well as 1, 2, 5, 6, 9 and 16 days post-spraying.

[3] = test system: corn plants, commercial 111 day, central corn belt variety; test: Corn plant leaf rolling assay and shoot fresh weight under drought; conditions: for Shoot Fresh Weight, 15 DAS: 12 days drought then 3 days watering; for Average # of Rolled Leaves/Plant, 5 DAS / Average # of Rolled Leaves/Plant, 6 DAS / Average # of Rolled Leaves/Plant, 8 DAS: water withheld; for Average # of Rolled Leaves/Plant, 5 DAS: 5 days after spraying; for Average # of Rolled Leaves/Plant, 6 DAS: 6 days after spraying; for Average # of Rolled Leaves/Plant, 8 DAS: 8 days after spraying
Description: as §1, with “post-spraying. This study was conducted as described above with the following the exceptions. After spraying, plants were put back in the greenhouse and water was withheld for twelve days, simulating drought stress. The plants were then watered to saturation for three consecutive days before the plant shoots were cut at the soil surface and subsequently weighed in grams (fresh weight). Leaf-rolling data and fresh weight data were recorded for each plant following treatment application at the times specified below in Table 6.” for “post-spraying.”

[4] = test system: soybean plants; test: Soybean drought tolerance (stomatal conductance)
Description: In this study, soybean plants were grown for 10 days under ambient lab temperature conditions and illumination of 150 umol m^2 s^−1 and a 16:8 photoperiod. At spraying, the primary leaves were fully expanded and the first trifoliate leaves were partially expanded. The plants were sprayed to dampness with solutions of water, S-ABA, 3′-methyl-(S)-abscisic acid, or 3′-propargyl-(S)-abscisic acid containing 0.025% (v/v) non-ionic surfactant. At times following spraying, the conductance of the primary leaves was measured using an AP4 porometer (Delta T Devices, Cambridge, UK) to evaluate the effect on stomatal conductance. A decrease in stomatal aperture, reflected in the conductance measures, is an immediate and direct effect of applied S-ABA. To simplify the data, the controls were always set to 100%. In Table 9, the effect of spray applications on the stomatal conductance was measured.

[5] = foliar spray 30 mg/l (3.4 g/acre)
[6] = foliar spray 100 mg/l (11.4 g/acre)
[7] = foliar spray 300 mg/l (34.1 g/acre)
[8] = foliar spray 1000 mg/l (113.7 g/acre)
[9] = foliar spray 100 ppm or 2.5 mg/plant
[10] = foliar spray 300 ppm or 7.5 mg/plant
[11] = foliar spray 1000 ppm or 25 mg/plant

## CC1=C(C)[C@](O)(/C=C/C(C)=C\C(=O)O)C(C)(C)CC1=O [3′-methyl-(S)-ABA, (2Z,4E)-5-((S)-1-hydroxy-2,3,6,6-tetramethyl-4-oxocyclohex-2-en-1-yl)-3-methylpenta-2,4-dienoic acid]
[1]; S-ABA even at 1000 mg/l (113.7 g/acre)
  Maintenance of growth under cold (10° C.) conditions: maintained growth
[1]; [5]
  Growth Rate, Greenhouse 7-9 d post spray: 2.650 cm/day
  Growth Rate, Growth Chamber 10° C. 2-7 d post spray: 1.092 cm/day
[1]; foliar spray 30 mg/l (3.4 g/acre), before chilling
  Growth Rate, Greenhouse 0-2 d post spray: 3.725 cm/day
[1]; [6]
  Growth Rate, Greenhouse 7-9 d post spray: 2.795 cm/day
  Growth Rate, Growth Chamber 10° C. 2-7 d post spray: 1.084 cm/day
[1]; foliar spray 100 mg/l (11.4 g/acre), before chilling
  Growth Rate, Greenhouse 0-2 d post spray: 4.290 cm/day
[1]; [7]
  Growth Rate, Greenhouse 7-9 d post spray: 3.565 cm/day
  Growth Rate, Growth Chamber 10° C. 2-7 d post spray: 0.990 cm/day
[1]; foliar spray 300 mg/l (34.1 g/acre), before chilling
  Growth Rate, Greenhouse 0-2 d post spray: 3.645 cm/day
[1]; [8]
  Growth Rate, Greenhouse 7-9 d post spray: 2.945 cm/day
  Growth Rate, Growth Chamber 10° C. 2-7 d post spray: 1.160 cm/day
[1]; foliar spray 1000 mg/l (113.7 g/acre), before chilling
  Growth Rate, Greenhouse 0-2 d post spray: 3.615 cm/day
[1]; before chilling
  Plant growth initially following spraying: initially suppressed
[1]; in one of two studies, not repeatable across studies, 3′-methyl-(S)-abscisic acid at 30, 100 and 300 mg/liter
  Leaf area: increased
[2]; [9]
  Average Stomatal Conductance (% of Control), 6 DAS: 93.3 % of Control
  Average Stomatal Conductance (% of Control), 16 DAS: 98.3 % of Control
[2]; [10]
  Average Stomatal Conductance (% of Control), 6 DAS: 70.6 % of Control
  Average Stomatal Conductance (% of Control), 16 DAS: 79.4 % of Control
[2]; [11]
  Average Stomatal Conductance (% of Control), 6 DAS: 69.6 % of Control
  Average Stomatal Conductance (% of Control), 16 DAS: 74.5 % of Control
[2]; regression of the data in Table 5
  Relative potency resulting in a 25% reduction in transpiration, times that seen with S-ABA: 1.97 times
[3]; 100 ppm or 2.5 mg/plant
  Shoot Fresh Weight, 15 DAS: 256.0 grams
  Average # of Rolled Leaves/Plant, 5 DAS: 1.6
  Average # of Rolled Leaves/Plant, 6 DAS: 4.6
  Average # of Rolled Leaves/Plant, 8 DAS: 9.0
[3]; 300 ppm or 7.5 mg/plant
  Shoot Fresh Weight, 15 DAS: 276.6 grams
  Average # of Rolled Leaves/Plant, 5 DAS: 2.0
  Average # of Rolled Leaves/Plant, 6 DAS: 3.6
  Average # of Rolled Leaves/Plant, 8 DAS: 8.4
[3]; 1000 ppm or 25 mg/plant
  Shoot Fresh Weight, 15 DAS: 373.4 grams
  Average # of Rolled Leaves/Plant, 6 DAS: 2.2
  Average # of Rolled Leaves/Plant, 8 DAS: 7.2
[4]; 300 mg/l foliar spray
  Reduction in stomatal conductance at 1 day post spraying: 89%
[4]; foliar spray 300 mg/l, 0.3 mg/plant, Day 1
  Percent Conductance (stomatal conductance, control = 100%), Day 1: 11%
[4]; foliar spray 300 mg/l, 0.3 mg/plant, Day 2
  Percent Conductance (stomatal conductance, control = 100%), Day 2: 18%
[4]; foliar spray 300 mg/l, 0.3 mg/plant, Day 5
  Percent Conductance (stomatal conductance, control = 100%), Day 5: 36%
[4]; foliar spray 300 mg/l, 0.3 mg/plant, Day 6
  Percent Conductance (stomatal conductance, control = 100%), Day 6: 68%
[4]; foliar spray 300 mg/l, 0.3 mg/plant, Day 7
  Percent Conductance (stomatal conductance, control = 100%), Day 7: 79%
